Assays:
[1] = molecular target: human mitochondrial RNA polymerase (POLRMT) (Homo sapiens, UniProt O00411); test: In vitro human mitochondrial RNA polymerase (POLRMT) incorporation assay; details: 100 μM rNTP, 2 hr, normalized to natural rNTP
Method: 125 nM of POLRMT was incubated with 500 nM of 5′-radiolabled RNA/DNA hybrid, 10 mM MgCl2 and 100 μM of the corresponding nucleoside triphosphate. For non-nucleoside analogs, 100 μM of inhibitor was added at the same time as 100 μM UTP. Incorporation was allowed to proceed for 2 h at 30° C. and reactions were stopped by the addition of 10 mM EDTA and formamide. Samples were visualized on 20% denaturing polyacrylamide gel. Data were analyzed by normalizing the product fraction for each nucleoside triphosphate analog to that of the corresponding natural nucleoside triphosphate.
100 μM of each rNTP was incubated with POLRMT enzyme and the appropriate DNA/RNA primer/template hybrid and incorporation was evaluated at 2 hr. Nucleoside triphosphate analog incorporation was normalized to that of natural rNTP substrates.

[2] = molecular target: HCV NS5B RNA polymerase GT 3a WT; test: NS5B enzyme assay, GT 3a WT; assay type: biochemical; details: NS5B enzyme GT 3a WT; average of two to three replicates ± SD
Method: The 21-amino-acid C-terminal truncated HCV NS5B RNA polymerase can be cloned from the HCV replicon cells, modified with a six-His-terminal tail, expressed in a prokaryotic expression vector (pQE60; Qiagen), and subsequently purified over a Talon cobalt affinity resin column (Clontech, Palo Alto, Calif.).^1 Purification can be monitored by SDS-PAGE and Western blotting. The resulting purified protein can be dialyzed overnight against 50 mM sodium phosphate (pH 8.0)-300 mM sodium chloride-0.5% Triton X-100-50% glycerol-2 mM dithiothreitol. The dialysate maintains consistent activity for more than 6 months when stored at −20° C. Protein can be quantified with the Coomassie Plus protein assay reagent (Pierce) by using a bovine serum albumin standard from the same supplier.
NS5B RNA polymerase reaction can be studied by monitoring the incorporation of ^32P-labeled UMP into the newly synthesized RNA strand by using minus IRES as the template. […] After the membrane is rinsed with water followed by rinsing with ethanol, the dots can be cut out and the radioactivity counted in a Packard liquid scintillation counter. The amount of product can be calculated on the basis of the total radioactivity in the reaction mixture. The rate of the reaction can be determined from the slope of the time course of product formation. […]

[3] = molecular target: T1, HCV NS5B RNA polymerase GT 3a L159F (Hepatitis C virus genotype 3a, UniProt Q81258, L2589F); test: NS5B enzyme assay, GT 3a L159F; assay type: biochemical; details: NS5B enzyme GT 3a L159F; average of two to three replicates ± SD
T1 construct: The 21-amino-acid C-terminal truncated HCV NS5B RNA polymerase; His6; made in house
T1 sequence (Q81258 2431-3000 L2589F): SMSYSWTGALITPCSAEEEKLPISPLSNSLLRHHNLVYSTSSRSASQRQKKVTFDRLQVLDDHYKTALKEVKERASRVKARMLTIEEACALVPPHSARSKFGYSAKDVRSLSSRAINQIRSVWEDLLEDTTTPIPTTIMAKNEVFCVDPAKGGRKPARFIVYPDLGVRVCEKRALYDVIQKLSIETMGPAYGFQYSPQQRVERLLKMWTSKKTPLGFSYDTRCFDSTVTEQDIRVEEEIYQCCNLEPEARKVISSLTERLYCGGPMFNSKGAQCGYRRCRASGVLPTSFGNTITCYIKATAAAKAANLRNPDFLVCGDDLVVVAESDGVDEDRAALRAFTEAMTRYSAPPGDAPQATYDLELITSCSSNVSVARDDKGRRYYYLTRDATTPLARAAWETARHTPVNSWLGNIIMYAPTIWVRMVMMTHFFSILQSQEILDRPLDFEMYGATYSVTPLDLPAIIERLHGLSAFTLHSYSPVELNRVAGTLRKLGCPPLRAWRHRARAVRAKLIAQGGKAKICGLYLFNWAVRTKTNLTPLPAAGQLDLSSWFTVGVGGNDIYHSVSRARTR
Method: The 21-amino-acid C-terminal truncated HCV NS5B RNA polymerase can be cloned from the HCV replicon cells, modified with a six-His-terminal tail, expressed in a prokaryotic expression vector (pQE60; Qiagen), and subsequently purified over a Talon cobalt affinity resin column (Clontech, Palo Alto, Calif.).^1 Purification can be monitored by SDS-PAGE and Western blotting. The resulting purified protein can be dialyzed overnight against 50 mM sodium phosphate (pH 8.0)-300 mM sodium chloride-0.5% Triton X-100-50% glycerol-2 mM dithiothreitol. […] Protein can be quantified with the Coomassie Plus protein assay reagent (Pierce) by using a bovine serum albumin standard from the same supplier.

human mitochondrial RNA polymerase (POLRMT), sequence (O00411 42-1230): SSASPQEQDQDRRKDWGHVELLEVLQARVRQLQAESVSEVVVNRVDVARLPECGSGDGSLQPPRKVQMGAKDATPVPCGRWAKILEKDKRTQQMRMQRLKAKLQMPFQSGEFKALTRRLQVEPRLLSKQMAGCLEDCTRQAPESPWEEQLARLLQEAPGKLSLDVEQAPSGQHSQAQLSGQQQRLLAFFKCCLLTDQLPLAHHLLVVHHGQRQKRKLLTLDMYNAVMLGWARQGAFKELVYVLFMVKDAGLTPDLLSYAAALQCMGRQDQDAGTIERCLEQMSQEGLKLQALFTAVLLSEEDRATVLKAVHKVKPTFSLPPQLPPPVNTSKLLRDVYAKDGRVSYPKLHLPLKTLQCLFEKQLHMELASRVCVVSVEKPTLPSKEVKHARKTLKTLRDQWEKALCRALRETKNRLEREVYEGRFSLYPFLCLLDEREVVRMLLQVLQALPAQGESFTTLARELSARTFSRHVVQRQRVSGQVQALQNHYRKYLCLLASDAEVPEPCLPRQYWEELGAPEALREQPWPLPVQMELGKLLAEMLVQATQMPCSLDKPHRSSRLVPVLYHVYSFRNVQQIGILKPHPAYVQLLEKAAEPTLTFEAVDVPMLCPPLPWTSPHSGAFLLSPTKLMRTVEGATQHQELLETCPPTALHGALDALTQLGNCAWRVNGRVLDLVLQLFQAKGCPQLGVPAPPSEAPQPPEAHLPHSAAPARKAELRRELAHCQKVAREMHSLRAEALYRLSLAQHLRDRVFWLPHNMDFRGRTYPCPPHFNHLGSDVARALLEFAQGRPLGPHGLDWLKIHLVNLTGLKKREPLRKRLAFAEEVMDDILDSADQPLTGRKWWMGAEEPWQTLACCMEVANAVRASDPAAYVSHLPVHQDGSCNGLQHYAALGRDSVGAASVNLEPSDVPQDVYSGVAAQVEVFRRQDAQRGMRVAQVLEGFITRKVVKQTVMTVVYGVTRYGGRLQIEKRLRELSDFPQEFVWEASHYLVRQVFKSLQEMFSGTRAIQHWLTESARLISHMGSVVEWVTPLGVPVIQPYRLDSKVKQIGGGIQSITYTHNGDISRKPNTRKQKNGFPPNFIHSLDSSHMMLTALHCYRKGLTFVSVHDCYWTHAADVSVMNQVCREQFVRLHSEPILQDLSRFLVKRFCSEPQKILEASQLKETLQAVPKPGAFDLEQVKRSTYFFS

## C[C@@]1(F)[C@H](O)[C@@H](COP(=O)(O)OP(=O)(O)OP(=O)(O)O)O[C@H]1n1ccc(=O)[nH]c1=O [2′-Me-2′-F-UTP]
[1]
  incorporation by POLRMT as compared to natural UTP: 3.1%
[2]
  EC50: 7.2 ± 2.1 µM
[3]
  EC50: 5.2 ± 1.4 µM
